From patent publication US12410171B2, “Tropomyosin receptor kinase (TRK) degradation compounds and methods of use” (Cullgen (Shanghai), Inc., priority 2020, dated 2025)
pIC50: −log10 of the molar value. Where two headings read alike, the source gives them in different places.

Columns and labels:
[1] = test system: KM12 cells; assay: KM12 cell viability (CellTiter-Glo); type: cell-based; conditions: Homo sapiens
Summary of the method: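 Three-day exposure of KM12 cells (5000/well, RPMI 1640 with 10% FBS, 37 °C, 5% CO2) to compound dilution series, 3-fold over 8 or 11 points (top 1000 nM in the 8-point format) or 2-fold over 12. CellTiter-Glo readout, with IC50 fitted by nonlinear least-squares regression.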

[2] = target: T1, TPM3-TRKA fusion protein (Homo sapiens, UniProt P04629); assay: TPM3-TRKA fusion protein levels in KM12 cells (Western blot); type: cell-based; conditions: read-out: Degradation (at 10 nM)
T1 construct: The resulted chimeric proteins always retain the kinase domain of TRK proteins; TPM3 (fusion partner, N-terminal part of tropomyosin alpha-3, P06753); endogenous in cells; host or cells: KM12 colon cancer cells; the other entry of the earlier key: TPM3 (P06753, Tropomyosin alpha-3 chain)
Summary of the method: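 TPM3-TRKA levels were assessed by Western blot with chemiluminescent detection and band densitometry, after SDS-PAGE of BCA-normalized RIPA lysates. Before lysis, KM12 cells received DMSO, compounds or matched control compounds at concentrations including 0.1, 1, 10 and 100 nM and 0.4–30 nM. Exposures lasted 4 h, 8–16 h or 16 h.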

[3] = 72 h, KM12 cell viability, CellTiter-Glo, three days treatment, read-out: IC50
[4] = 16 h, TPM3-TRKA degradation in KM12 cells at 10 nM compound, category of percentage degradation

T1 sequence (P04629 with tags, fused parts or gaps): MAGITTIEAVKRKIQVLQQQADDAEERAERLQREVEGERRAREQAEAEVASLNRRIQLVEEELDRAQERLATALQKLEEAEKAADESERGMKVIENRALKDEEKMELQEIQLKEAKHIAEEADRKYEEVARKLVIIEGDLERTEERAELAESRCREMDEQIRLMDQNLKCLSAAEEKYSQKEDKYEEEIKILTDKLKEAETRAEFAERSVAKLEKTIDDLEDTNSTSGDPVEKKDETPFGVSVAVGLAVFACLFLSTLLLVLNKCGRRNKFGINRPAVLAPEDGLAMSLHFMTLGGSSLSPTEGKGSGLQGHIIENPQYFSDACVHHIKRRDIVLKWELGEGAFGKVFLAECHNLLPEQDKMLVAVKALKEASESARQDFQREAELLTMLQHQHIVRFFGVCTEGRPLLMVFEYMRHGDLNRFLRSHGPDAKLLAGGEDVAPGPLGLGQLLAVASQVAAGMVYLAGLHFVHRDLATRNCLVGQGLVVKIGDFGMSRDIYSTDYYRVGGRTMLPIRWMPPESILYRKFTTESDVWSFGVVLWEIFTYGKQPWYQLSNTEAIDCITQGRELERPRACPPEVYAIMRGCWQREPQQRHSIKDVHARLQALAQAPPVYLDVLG

O=C1CCC(N2Cc3cc(C4CN(C5CCN(c6cccc(-c7cnc8ccc(N9CCC[C@@H]9c9cccc(F)c9)nn78)n6)CC5)C4)ccc3C2=O)C(=O)N1 (stereo partly drawn) [TR-302, 3-(5-(1-(1-(6-(6-((R)-2-(3-fluorophenyl)pyrrolidin-1-yl)imidazo[1,2-b]pyridazin-3-yl)pyridin-2-yl)piperidin-4-yl)azetidin-3-yl)-1-oxoisoindolin-2-yl)piperidine-2,6-dione]
pIC50 [1, 3]: 8.77 | percent degradation of TPM3-TRKA protein at 0.01 µM ([2]; KM12, 16 h): > 80%

Cn1c(=O)n(C2CCC(=O)NC2=O)c2cccc(C#CCN3CCN(c4ccc(C(=O)Nc5n[nH]c6ccc(Cc7cc(F)cc(F)c7)cc56)c(NC5CCOCC5)c4)CC3)c21 (stereo not shown) [TR-303, N-(5-(3,5˜Difluorobenzyl)-1H-indazol-3-yl)-4-(4-(3-(1-(2,6-dioxopiperidin-3-yl)-3-methyl-2-oxo-2,3˜dihydro-1/7-benzo[d]imidazol-4-yl)prop-2-yn-1-yl)piperazin-1-yl)-2-((tetrahydro-2/-pyran-4-yl)amino)benzamide]
pIC50 [1, 3]: 8.08 | percent degradation of TPM3-TRKA protein at 0.01 µM [2, 4]: > 80%

Cn1c(=O)n(C2CCC(=O)NC2=O)c2cccc(CCCCN3CCN(c4ccc(C(=O)Nc5n[nH]c6ccc(Cc7cc(F)cc(F)c7)cc56)c(NC5CCOCC5)c4)CC3)c21 (stereo not shown) [TR-304, N-(5-(3,5-difluorobenzyl)-1H-indazol-3-yl)-4-(4-(4-(1-(2,6-dioxopiperidin-3-yl)-3-methyl-2-oxo-2,3-dihydro-1H-benzo[d]imidazol-4-yl)butyl)piperazin-1-yl)-2-((tetrahydro-2H-pyran-4-yl)amino)benzamide]
pIC50 [1, 3]: 8.82 | percent degradation of TPM3-TRKA protein at 0.01 µM [2, 4]: > 80%

Cn1c(=O)n(C2CCC(=O)NC2=O)c2cccc(CCCN3CCN(c4ccc(C(=O)Nc5n[nH]c6ccc(Cc7cc(F)cc(F)c7)cc56)c(NC5CCOCC5)c4)CC3)c21 (stereo not shown) [TR-305, N-(5-(3,5˜Difluorobenzyl)-1H-indazol-3-yl)-4-(4-(3-(1-(2,6-dioxopiperidin-3-yl)-3-methyl-2-oxo-2,3-dihydro-1H-benzo[d]imidazol-4-yl)propyl)piperazin-1-yl)-2-((tetrahydro-2H-pyran-4-yl)amino)benzamide]
pIC50 [1, 3]: 8.60 | percent degradation of TPM3-TRKA protein at 0.01 µM [2, 4]: > 80%

Cn1c(=O)n(C2CCC(=O)NC2=O)c2cccc(C#CCCN3CCN(c4ccc(C(=O)Nc5n[nH]c6ccc(Cc7cc(F)cc(F)c7)cc56)c(NC5CCOCC5)c4)CC3)c21 (stereo not shown) [TR-306, N-(5-(3,5-difluorobenzyl)-1H-indazol-3-yl)-4-(4-(4-(1-(2,6-dioxopiperidin-3-yl)-3-methyl-2-oxo-2,3-dihydro-1H-benzo[d]imidazol-4-yl)but-3-yn-1-yl)piperazin-1-yl)-2-((tetrahydro-2H-pyran-4-yl)amino)benzamide]
pIC50 [1, 3]: 8.40 | percent degradation of TPM3-TRKA protein at 0.01 µM [2, 4]: > 80%

O=C1CCC(N2C(=O)c3ccc(C4CN(C5CCN(c6cccc(-c7cnc8ccc(N9CCC[C@@H]9c9cccc(F)c9)nn78)n6)CC5)C4)cc3C2=O)C(=O)N1 (stereo partly drawn) [TR-308, 2-(2,6-dioxopiperidin-3-yl)-5-(1-(1-(6-(6-((R)-2-(3-fluorophenyl)pyrrolidin-1-yl)imidazo[1,2-b]pyridazin-3-yl)pyridin-2-yl)piperidin-4-yl)azetidin-3-yl)isoindoline-1,3-dione]
pIC50 [1, 3]: 7.93 | percent degradation of TPM3-TRKA protein at 0.01 µM ([2]; KM12, 16 h): > 80%

O=C1CCC(N2Cc3ccc(C4CN(C5CCN(c6cccc(-c7cnc8ccc(N9CCC[C@@H]9c9cccc(F)c9)nn78)n6)CC5)C4)cc3C2=O)C(=O)N1 (stereo partly drawn) [TR-309, 3-(6-(1-(1-(6-(6-((R)-2-(3-fluorophenyl)pyrrolidin-1-yl)imidazo[1,2-b]pyridazin-3-yl)pyridin-2-yl)piperidin-4-yl)azetidin-3-yl)-1-oxoisoindolin-2-yl)piperidine-2,6-dione]
pIC50 [1, 3]: 8.37 | percent degradation of TPM3-TRKA protein at 0.01 µM ([2]; KM12, 16 h): 50 to 80%

Cn1c(=O)n(C2CCC(=O)NC2=O)c2ccc(OCCN3CCN(c4ccc(C(=O)Nc5n[nH]c6ccc(Cc7cc(F)cc(F)c7)cc56)c(NC5CCOCC5)c4)CC3)cc21 (stereo not shown) [TR-314, N-(5-(3,5˜Difluorobenzyl)-1H-indazol-3-yl)-4-(4-(2-((1-(2,6-dioxopiperidin-3˜yl)-3-methyl-2-oxo-2,3-dihydro-1H-benzo[d]imidazol-5-yl)oxy)ethyl)piperazin-1-yl)-2-((tetrahydro-2H-pyran-4-yl)amino)benzamide]
pIC50 ([1]; KM12, 72 h): 6.67 | percent degradation of TPM3-TRKA protein at 0.01 µM ([2]; KM12, 16 h): 50 to 80%

Cn1c(=O)n(C2CCC(=O)NC2=O)c2cccc(NCCCN3CCN(c4ccc(C(=O)Nc5n[nH]c6ccc(Cc7cc(F)cc(F)c7)cc56)c(NC5CCOCC5)c4)CC3)c21 (stereo not drawn) [TR-315, N—(S-(3,5-difluorobenzyl)-1H-indazol-3-yl)-4-(4-(3-((1-(2,6-dioxopiperidin-3-yl)-3-methyl-2-oxo-2,3-dihydro-1H-benzo[d]imidazol-4-yl)amino)propyl)piperazin-1-yl)-2-((tetrahydro-2H-pyran-4-yl)amino)benzamide]
pIC50 [1, 3]: 8.35 | percent degradation of TPM3-TRKA protein at 0.01 µM [2, 4]: > 80%

Cn1c(=O)n(C2CCC(=O)NC2=O)c2ccc(NCCCN3CCN(c4ccc(C(=O)Nc5n[nH]c6ccc(Cc7cc(F)cc(F)c7)cc56)c(NC5CCOCC5)c4)CC3)cc21 (stereo not shown) [TR-316, N-(5-(3,5-difluorobenzyl)-1H-indazol-3-yl)-4-(4-(3-((1-(2,6-dioxopiperidin-3-yl)-3-methyl-2-oxo-2,3-dihydro-1H-benzo[d]imidazol-5-yl)amino)propyl)piperazin-1-yl)-2-((tetrahydro-2H-pyran-4-yl)amino)benzamide]
pIC50 [1, 3]: 8.64 | percent degradation of TPM3-TRKA protein at 0.01 µM [2, 4]: > 80%

O=C1CCC(N2Cc3ccc(N4CC(CN5CCN(c6cccc(-c7cnc8ccc(N9CCC[C@@H]9c9cccc(F)c9)nn78)n6)CC5)C4)cc3C2=O)C(=O)N1 (stereo partly drawn) [TR-317, 3-(6-(3-((4-(6-(6-((R)-2-(3-fluorophenyl)pyrrolidin-1-yl)imidazo[1,2-b]pyridazin-3-yl)pyridin-2-yl)piperazin-1-yl)methyl)azetidin-1-yl)-1-oxoisoindolin-2-yl)piperidine-2,6-dione]
pIC50 [1, 3]: 8.30 | percent degradation of TPM3-TRKA protein at 0.01 µM [2, 4]: > 80%

O=C1CCC(N2Cc3ccc(N4CC(CN5CCN(c6ccc(C(=O)Nc7n[nH]c8ccc(Cc9cc(F)cc(F)c9)cc78)c(NC7CCOCC7)c6)CC5)C4)cc3C2=O)C(=O)N1 (stereo not shown) [TR-318, N-(5-(3,5-difluorobenzyl)-1H-indazol-3-yl)-4-(4-((1-(2-(2,6-dioxopiperidin-3-yl)-3-oxoisoindolin-5-yl)azetidin-3-yl)methyl)piperazin-1-yl)-2-((tetrahydro-2H-pyran-4-yl)amino)benzamide]
pIC50 [1, 3]: 8.62 | percent degradation of TPM3-TRKA protein at 0.01 µM [2, 4]: > 80%

Cn1c(=O)n(C2CCC(=O)NC2=O)c2ccc(C#CCCN3CCN(c4ccc(C(=O)Nc5n[nH]c6ccc(Cc7cc(F)cc(F)c7)cc56)c(NC5CCOCC5)c4)CC3)cc21 (stereo not shown) [TR-319, N-(5-(3,5-difluorobenzyl)-1H-indazol-3-yl)-4-(4-(4-(1-(2,6-dioxopiperidin-3-yl)-3-methyl-2-oxo-2,3-dihydro-1H-benzo[d]imidazol-5-yl)but-3-yn-1-yl)piperazin-1-yl)-2-((tetrahydro-2H-pyran-4-yl)amino)benzamide]
pIC50 [1, 3]: 8.24 | percent degradation of TPM3-TRKA protein at 0.01 µM [2, 4]: > 80%

Cn1c(=O)n(C2CCC(=O)NC2=O)c2ccc(CCCCN3CCN(c4ccc(C(=O)Nc5n[nH]c6ccc(Cc7cc(F)cc(F)c7)cc56)c(NC5CCOCC5)c4)CC3)cc21 (stereo not drawn) [TR-320, N—(S-(3,5-difluorobenzyl)-1H-indazol-3-yl)-4-(4-(4-(1-(2,6-dioxopiperidin-3-yl)-3-methyl-2-oxo-2,3-dihydro-1H-benzo[d]imidazol-5-yl)butyl)piperazin-1-yl)-2-((tetrahydro-2H-pyran-4-yl)amino)benzamide]
pIC50 [1, 3]: 8.85 | percent degradation of TPM3-TRKA protein at 0.01 µM [2, 4]: > 80%

Cn1c(=O)n(C2CCC(=O)NC2=O)c2ccc(N3CC(CN4CCN(c5ccc(C(=O)Nc6n[nH]c7ccc(Cc8cc(F)cc(F)c8)cc67)c(NC6CCOCC6)c5)CC4)C3)cc21 (stereo not shown) [TR-321, N-(5-(3,5-difluorobenzyl)-1H-indazol-3-yl)-4-(4-((1-(1-(2,6-dioxopiperidin-3-yl)-3-methyl-2-oxo-2,3-dihydro-1H-benzo[d]imidazol-5-yl)azetidin-3-yl)methyl)piperazin-1-yl)-2-((tetrahydro-2H-pyran-4-yl)amino)benzamide]
pIC50 [1, 3]: 8.64 | percent degradation of TPM3-TRKA protein at 0.01 µM [2, 4]: > 80%

Cn1c(=O)n(C2CCC(=O)NC2=O)c2cccc(OCCN3CCN(c4ccc(C(=O)Nc5n[nH]c6ccc(Cc7cc(F)cc(F)c7)cc56)c(NC5CCOCC5)c4)CC3)c21 (stereo not shown) [TR-322, N-(5-(3,5˜Difluorobenzyl)-1H-indazol-3-yl)-4-(4-(2-((1-(2,6-dioxopiperidin-3-yl)-3-methyl-2-oxo-2,3-dihydro-1H-benzo[d]imidazol-4-yl)oxy)ethyl)piperazin-1-yl)-2-((tetrahydro-2H-pyran˜4-yl)amino)benzamide]
pIC50 ([1]; KM12, 72 h): 6.77 | percent degradation of TPM3-TRKA protein at 0.01 µM ([2]; KM12, 16 h): < 50%

O=C1CCC(N2Cc3cc(C#CC4CCN(c5ccc(C(=O)Nc6n[nH]c7ccc(Cc8cc(F)cc(F)c8)cc67)c(NC6CCOCC6)c5)CC4)ccc3C2=O)C(=O)N1 (stereo not shown) [TR-323, N-(5-(3,5-Difluorobenzyl)-1H-indazol-3-yl)-4-(4-((2-(2,6-dioxopiperidin-3-yl)-1-oxoisoindolin-5-yl)ethynyl)piperidin-1-yl)-2-((tetrahydro-2H-pyran-4-yl)amino)benzamide]
pIC50 [1, 3]: 7.51 | percent degradation of TPM3-TRKA protein at 0.01 µM ([2]; KM12, 16 h): > 80%
